Source: patent publication US7211581B2, “Substituted 2-(diaza-bicyclo-alkyl)-pyrimidone derivatives” (Sanofi-Aventis, priority 2003, dated 2007)
Structures can show the parent of a compound that is named as a salt.

Key:
GSK3β = GSK3β (Homo sapiens, UniProt P49841); experiment: Inhibitory activity against GSK3β (33P-ATP phosphorylation of prephosphorylated GS1 peptide, two protocols); type: biochemical
Description: Inhibitory Activity of the Medicament of the Present Invention Against GSK3β Two different protocols can be used. In a first protocol: 7.5 μM of prephosphorylated GS1 peptide and 10 μM ATP (containing 300,000 cpm of ^33P-ATP) were incubated in 25 mM Tris-HCl, pH 7.5, 0.6 mM DTT, 6 mM MgCl2, 0.6 mM EGTA, 0.05 mg/ml BSA buffer for 1 hour at room temperature in the presence of GSK3beta (total reaction volume: 100 microliters). In a second protocol: 4.1 μM of prephosphorylated GS 1 peptide and 42 μM ATP (containing 260,000 cpm ^33P-ATP) were incubated in 80 mM Mes-NaOH, pH 6.5, 1 mM Mg acetate, 0.5 mM EGTA, 5 mM 2-mercaptoethanol, 0.02% Tween 20, 10% glycerol buffer for 2 hours at room temperature in the presence of GSK3beta. Inhibitors were solubilised in DMSO (final solvent concentration in the reaction medium, 1%). The reaction was stopped with 100 microliters of a solution made of 25 g polyphosphoric acid (85% P2O5), 126 ml 85% H3PO4, H2O to 500 ml and then diluted to 1:100 before use. An aliquot of the reaction mixture was then transferred to Whatman P81 cation exchange filters and rinsed with the solution described above. Incorporated 33P radioactivity was determined by liquid scintillation spectrometry. The phosphorylated GS-1 peptide had the following sequence: • NH2-[…](P)EDEE-COOH.

GSK3β, sequence (P49841 whole entry, species assumed): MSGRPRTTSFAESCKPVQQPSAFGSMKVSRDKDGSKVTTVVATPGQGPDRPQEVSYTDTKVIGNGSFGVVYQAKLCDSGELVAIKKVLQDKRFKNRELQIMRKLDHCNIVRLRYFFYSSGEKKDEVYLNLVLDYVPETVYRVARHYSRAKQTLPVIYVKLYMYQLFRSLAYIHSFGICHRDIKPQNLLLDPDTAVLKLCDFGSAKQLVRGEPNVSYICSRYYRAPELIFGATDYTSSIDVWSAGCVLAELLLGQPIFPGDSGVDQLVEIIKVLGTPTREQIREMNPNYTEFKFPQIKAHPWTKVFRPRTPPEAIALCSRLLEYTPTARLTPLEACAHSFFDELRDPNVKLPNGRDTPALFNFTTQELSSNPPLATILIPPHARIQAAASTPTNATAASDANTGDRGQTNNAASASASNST

Structure (SMILES) | melting point | IC50 (GSK3β)
Cn1c(N2CC3C[C@H]2CN3)nc(-c2ccncn2)cc1=O (as salt: hydrochloride) | 275 to 277 °C | 
Cn1c(N2CC3C[C@H]2CN3)nc(-c2ccncc2)cc1=O (as salt: hydrochloride) | 240 to 242 °C | 
Cc1ccc(N2C[C@@H]3CC2CN3c2nc(-c3ccncc3)cc(=O)n2C)cc1 [4′, (1S)-3-Methyl-6-pyridin-4-yl-2-(5-p-tolyl-2,5-diaza-bicyclo[2.2.1]hept-2-yl)-3H-pyrimidin-4-one] | 123 to 125 °C | 4 nM
Cn1c(N2CC3C[C@H]2CN3C(=O)c2ccc(Br)cc2)nc(-c2ccncn2)cc1=O [Compound 24, (1S)-2-(5-(4-Bromo-benzoyl)-2,5-diaza-bicyclo[2.2.1]hept-2-yl)-1-methyl-1H-[4,4′]bipyrimidinyl-6-one] | 142 to 144 °C | 6 nM
